Assay results reported in patent US10329304B2, “Compounds and methods for inhibition of hedgehog signaling and phosphodiesterase” (Vanderbilt University, priority 2014, dated 2019).

How the values were obtained:
[1] = system: ptch1 expression; assay: RT-PCR of ptch1 in NIH3T3 cells stimulated with purmorphamine; assay type: cell-based; details: NIH3T3 fibroblasts
Method: NIH3T3 cells were stimulated with 3 μM purmorphamine in the presence of eggmanone or DMSO for 24-hours. Cells were collected and RNA isolated with RNeasy kit (Qiagen, Valencia, Calif.). After subsequent cDNA amplification using Superscript III (Invitrogen, Carlsbad, Calif.), samples were quantified by comparing Q-PCR cycle thresholds (Ct) for gene expression normalized to GAPDH. The following TaqMan probe and primer sets (Applied Biosystems) were used: GAPDH (Mm99999915_g1), and Patch1 (Mm01306905_mi).

[2] = system: otic kino-cilia motility; assay: Video-microscopy of zebrafish otic kino-cilia; assay type: in vivo; details: 2 μM
Description: For visualizing ciliary beating, live embryos (20 hpf) were removed from their chorion, mounted in SeaPlaque low-melting agarose (Biowhittaker Molecular Applications) (1.0% in embryo medium) in microwells of glass-bottom culture dishes (MatTek), and covered with embryo medium. Movies were acquired by using OPENLAB software (Improvision) at 55 frames per second with a 63×DIC objective on a Zeiss Axiovert 200 inverted fluorescence microscope equipped with a Retiga Exi Fast camera (Qimaging). Kymographs were obtained by drawing a line across a ciliary trajectory by using ImageJ software (National Institutes of Health, developed by W. Rasband) and Multiple-Kymograph plugin (developed by J. Rietdorf and A. Seitz).

[3] = system: 11 PDE families; assay: In vitro PDE activity assays across 11 PDE families; assay type: biochemical
Method: In vitro PDE profiling and dose-response assays were performed by BPS Biosciences (San Diego, Calif.). Kinetic Mechanism of inhibition studies were conducted by Millipore (St. Louis, Mo.). In brief, the PDE assay measures fluorescent polarization of FAM-AMP as FAM-cAMP is converted to FAM-AMP by PDE), the binding agent.
A series of dilutions of the test compound were prepared with 10% DMSO in assay buffer and 5 μl of the dilution was added to a 50 μl reaction so that the final concentration of DMSO is 1% in all of reactions. All of the PDE enzymatic reactions were conducted in duplicate at room temperature for 60 minutes in a 50 μl mixture containing PDE assay buffer (10 mM Tris-HCl, pH7.4, 10 mM MaCl2, 0.05% Tween 20), 100 nM FAM-cAMP, a PDE enzyme and a test compound.
After the enzymatic reaction, 100 μl of a binding solution (1:100 dilution of the binding agent, which contains the nano beads that recognize FAM-AMP, with the binding agent diluent) was added to each reaction and the reaction was performed at room temperature for 60 minutes. Fluorescence intensity was measured at an excitation of 485 nm and an emission of 528 nm using a Tecan Infinite M1000 microplate reader. Assays done by Millipore were conducted similarly with changes noted below: […]

[4] = system: Gli1 transcription; assay: Sufu−/− mouse embryonic fibroblasts qRT-PCR; assay type: cell-based; details: Gli1 and Ptch1

Row | SMILES | ptch1 expression in response to purmorphamine [1] | Otic kino-cilia movement [2] | Transcriptional inhibition in the Sufu−/− cell line, in words [4] | further results
1 | C=C(C)Cn1c(SCC(=O)c2cccs2)nc2sc3c(c2c1=O)CCCC3 [EGM, Eggmanone] | significantly inhibited ptch1 expression in response to purmorphamine | cilium movement is markedly reduced | – | Otic kino-cilia movement ([2]; listed as Egm): cilia movement is markedly reduced; Inhibition across PDE families ([3]; 10 μM (10 and 50 μM)): significantly inhibited only the PDE4 class
2 | C=C(C)Cn1c(SCC(=O)c2cccs2)nc2sc3c(c2c1=O)CCCC3 [Eggmanone, 3-(2-methylallyl)-2-((2-oxo-2-(thiophen-2-yl)ethyl)thio)-5,6,7,8-tetrahydrobenzo[4,5]thieno[2,3-d]pyrimidine-4(3H)-one] | significantly inhibited ptch1 expression in response to purmorphamine | markedly less motile | – | Otic kino-cilia movement ([2]; listed as eggmanone): markedly less motile; Inhibition across PDE families ([3]; 10 μM (10 and 50 μM in b110)): significantly inhibited only the PDE4 family; Inhibition across PDE families ([3]; 10 μM (10 and 50 μM in b110), listed as eggmanone): significantly inhibited only the cAMP specific PDE4 family
3 | CCCn1c(SCC(=O)c2cccs2)nc2sc3c(c2c1=O)CCCC3 [Formula 9e] | – | – | general ability to inhibit transcriptional activity | –
4 | C=C(C)Cn1c(SCC(=O)c2ccccc2)nc2sc3c(c2c1=O)CCCC3 [Formula 9g] | – | – | general ability to inhibit transcriptional activity | –
